Source: patent US20250270206A1, “COMPOSITIONS AND METHODS FOR INHIBITION OF RAS” (TheRas, Inc., priority 2022, published 2025)

Tests used:
[1] = target: T1, GppNHp-loaded KRAS4b (amino acids 1-169) G12C/C118S (Homo sapiens, UniProt P01116, C118S/G12C); assay: MALDI-TOF MS covalent Cys12 modification, GppNHp-loaded KRAS G12C; type: binding; conditions: 15 minutes reaction time, 1 μM protein, 1:2.5 protein to compound ratio
T1 construct: KRAS4b (amino acids 1-169) G12C/C118S protein; made in house
Protocol: (§1) MALDI-TOF MS analysis was performed using 1 μM protein target, and 1:2.5 protein to compound ratio was used.
(§2) Reaction: 1 μM of GppNHp, GTP, or GDP-loaded KRAS4b (amino acids 1-169) G12C/C118S protein (produced in-house by Protein Expression Laboratory, FNLCR/Leidos Biomed) in 20 mM 4-(2-hydroxyethyl)-1-piperazineethanesulfonic acid (HEPES) buffer containing 150 mM NaCl, 1 mM MgCl2, pH 7.3 was prepared freshly before assay. Ten-μL aliquots of protein were dispensed onto low volume 384-well plate, then 375 nL DMSO, and 25 nL of tested compounds from 5 mM DMSO stocks were added to appropriate wells using ECHO 555 acoustic liquid handler (Labcyte Inc.). For each reaction/assay, three blanks were prepared by mixing 10 μL of protein solution with 400 nL DMSO. The contents of the wells were carefully mixed by aspiration, and then each plate was sealed with an adhesive cover, centrifuged at 2000 g for 1 minute, and kept in the dark at room temperature until 5 min, 15 min, 30 min, 2 h, or 6 h collections.
(§3) Target pretreatment: Before each assay MALDI target (Bruker MPT 384 ground steel BC) was pre-treated by pipetting on each spot 0.75 μL of saturated sinapinic acid in acetonitrile (ACN).
(§4) Sample preparation: At collection time point, 2 μL of reaction mixtures were pipetted out into 20 μL MALDI matrix solution (saturated solution of sinapinic acid in 1:1 ACN:water solution containing 0.75% trifluoroacetic acid (TFA)) deposited on 384 well polypropylene plate. Resulting solution was mixed by aspiration, centrifuged at 2000 g for 1 minute, then 1 μL aliquots were dispensed on pre-treated MALDI target using Beckman Coulter Biomek FX^P 96/384-Span-8 Laboratory Automation Workstation. Finally, the MALDI target was dried under mild vacuum to produce spots with fine crystalline structure.
(§5) Measurements: MALDI-TOF measurements were performed on a Bruker Daltonics rapifleX Tissuetyper TOF-TOF mass spectrometer using linear mode and mass range from 18.6 to 21.6 kDa. Detector gain was set to 3.3× (483 V), sample rate to 5 GS/s, real time smoothing to medium (175 MHz), laser smart beam pattern was set to: “MS Thin Layer M5”, and the laser frequency was 10000 Hz. Spectra were automatically collected using custom AutoXecute method. Laser power was auto adjusted using fuzzy control. The peak selection range was set to be between 19000 and 21500 Da. Peak evaluation uses half width parameter set to be smaller than 40 Da for processed spectrograms (centroid peak detection: smoothed by SavitzkyGolay algorithm using 7 m/z width and 2 cycles; baseline was subtracted using median algorithm with flatness 1 and median level 0.01). Fuzzy control used Proteins/Oligonucleotides protocol with minimum half width 1/10 times above threshold. Up to 40000 satisfactory shots were collected in 10000 shot steps. Dynamic termination was implemented to finish data collection when peak signal/noise ratio reached a value of 50.
(§6) Spectra processing: Spectra were smoothed by SavitzkyGolay algorithm using 7 m/z width and three cycles. Centroid peak detection algorithm was used with signal to noise threshold set to 6, relative intensity threshold 4%, peak width 10 m/z and median baseline subtraction using flatness of 1 and median level of 0.01. Peak intensity and area under the peak were evaluated and recorded for all peaks between 19,300 Da and 21,550 Da.
(§7) Calculation of percent modification: Percent modification was calculated as a ratio of peak height for protein modified by compound to sum of peak height of remaining protein plus peak height for protein modified by compound. If multiple modifications were observed each was calculated as a ratio of peak height for given modification versus sum of peak heights for all observed protein species. Data reported in Table 5 are from the 15 minutes reaction time point.

[2] = target: T2, GDP-loaded KRAS4b (amino acids 1-169) G12C/C118S (Homo sapiens, UniProt P01116, C118S/G12C); assay: MALDI-TOF MS covalent Cys12 modification, GDP-loaded KRAS G12C; type: binding; conditions: 15 minutes reaction time, 1 μM protein, 1:2.5 protein to compound ratio
T2 construct: KRAS4b (amino acids 1-169) G12C/C118S protein; made in house
Protocol: as §1, §2, §3, §4, §5, §6, §7

[3] = target: T3, Avi-KRAS G12C (1-169) GppNHp/RAF1 RBD-3×FLAG (52-151) (Homo sapiens, UniProt P01116, G12C); assay: KRAS G12C-effector (RAF1 RBD) protein:protein interaction HTRF disruption assay; type: biochemical; conditions: PPI HTRF
T3 construct: Avi-KRAS G12C (1-169) GppNHp
Protocol: A protein:protein interaction (PPI) Homogeneous Time Resolved Fluorescence (HTRF) assay was used to determine the effectiveness of compounds of the present disclosure in disrupting KRAS G12C protein and effector (RAF1) binding.
The HTRF assay used the following reagents and proteins: 50 nM Avi-KRAS G12C (1-169) GppNHp/RAF1 RBD-3×FLAG (52-151); 75 nM Avi-RAF1 RBD-3×FLAG; Assay Buffer: 50 mM Tris pH 7.5, 100 mM NaCl, 5 mM MgCl2, 0.1% BSA, 0.01% Tween 20, 10% DMSO; Bead Buffer: 50 mM Tris pH 7.5, 0.01% Tween 20; Assay volume: 20 μL (384 well plate-low volume format); and Compound titration: 30-0.02 μM, 3× dilution series.
The HTRF assay employed the following protocol:
Compounds were dispensed in assay plate (384-well, Grenier Bione #784075) using Echo (model 555) with dose response settings: 200 nL final volume, titration from 100 μM as a 10-point dilution series. KRAS proteins were prepared in assay buffer, and dispensed on plates, 5 μL per well, then incubated for 1 h at room temperature, with 700 rpm shaking. RAF1 RBD were prepared in assay buffer, dispensed onto plates, 5 μL per well, and then incubated for 1 h at room temperature, with 700 rpm shaking. Reagent mix was then prepared and dispensed on plates, 10 μL per well, and then incubated for 1 h at room temperature, with 700 rpm shaking.
Plates were analyzed on an Envision plate reader using the following setting: Excitation 320 nm, Bandwidth 75 nm, Emission 615 nm, Bandwidth 85 nm; Gain 100%; Flashes 100; Lag 60 μs. Data was reported as percentage of activity, with DMSO as 100%. Data was plotted and analyzed using Prism 8.

[4] = target: T4, GTP-loaded KRAS4b (amino acids 1-169) G12C/C118S (Homo sapiens, UniProt P01116, C118S/G12C); assay: MALDI-TOF MS covalent Cys12 modification, GTP-loaded KRAS G12C; type: binding; conditions: 15 minutes reaction time, 1 μM protein, 1:2.5 protein to compound ratio
T4 construct: KRAS4b (amino acids 1-169) G12C/C118S protein; made in house
Protocol: as §1, §2, §3, §4, §5, §6, §7

pERK in NCI-H358 cells = assay: Cell-based pERK HTRF assay; conditions: Homo sapiens, 0.5 h, 30 min incubation
Protocol: pERK HTRF assays (Perkin Elmer) were used to determine the effectiveness of compounds of the present disclosure in disrupting KRAS G12C protein/effector signaling in cells.
On Day 1, cells (NCI-H358) were seeded into 96-well plates at 4×10^4 cells/well in complete growth media (RPMI, 10% FBS).
On Day 2, cells were treated with compounds at 0.25% DMSO. The source plate was created with compounds diluted in media at 5-fold the final assay concentration. The compounds were run in a 9-point concentration curve starting at 75 μM, with a 3-fold dilution between concentrations. 20 μL was transferred onto the cell plates (final volume in wells was 100 μL). Plates were harvested after 30 min incubation by aspirating media and adding kit-supplied 1× supplemented lysis buffer to all wells (75 μL per well). Plates were then placed on a plate shaker and incubated at 850 rpm for an additional 30 min.
Antibody mixture solution was prepared by diluting aliquoted d2 and Eu Cryptate antibodies 1:20 in kit supplied detection buffer, then mixed the diluted antibodies solutions (1:1 v:v). 4 μL of this solution was then added to a 384-well detection plate (Perkin Elmer; 6008230).
Samples were homogenized by pipetting up and down and then transferred (16 μL of cell lysates) from the 96-well cell culture plate to two wells of the HTRF 384-well detection plate containing the antibody solution. Plates were centrifuged (524 g for 1 min) and allowed to incubate between 4 and 24 h at room temperature. Maximum signal is reached after 4 h incubation time and remains stable over a period of 24 hours. Therefore, readings can be made between 4 and 24 h of incubation. Plates were centrifuged again (524 g for 1 min) and analyzed on the EnVision plate reader using the following settings: Excitation 320 nm, Bandwidth 75 nm; Emission 615 nm, Bandwidth 85 nm; Gain 100%; Flashes 100; Lag 60 μs.

Row | Structure (SMILES) | GppNHp-KRAS G12C percent of modification [1] | GDP-KRAS G12C percent of modification [2] | IC50 [3] | GTP-KRAS G12C percent of modification [4] | IC50 (pERK in NCI-H358 cells)
1 | C=CC(=O)N1CC[C@@H](N(C)c2nc(OC[C@@]34CCCN3C[C@H](F)C4)nc3c(F)c(-c4c(F)cc(F)c5sc(N)nc45)ncc23)C1 [Compound 5] | A (percent of modification ≥70%) | A (percent of modification ≥70%) | ≤ 500 nM | A (percent of modification ≥70%) | ≤ 100 nM
2 | C=CC(=O)N1C[C@H](C)N(c2nc(OC[C@@]34CCCN3C[C@H](F)C4)nc3c(F)c(-c4ccc(F)c5sc(N)c(C#N)c45)ncc23)C[C@H]1C [Compound 7, 2-amino-4-[4-[(2S,5R)-2,5-dimethyl-4-prop-2-enoyl-piperazin-1-yl]-8-fluoro-2-[[(2R,8S)-2-fluoro-1,2,3,5,6,7-hexahydropyrrolizin-8-yl]methoxy]pyrido[4,3-d]pyrimidin-7-yl]-7-fluoro-benzothiophene-3-carbonitrile] | B (50% percent of modification <70%) | A (percent of modification ≥70%) | ≤ 500 nM | D (percent of modification <10%) | ≤ 100 nM
3 | C=CC(=O)N1CC[C@@H](N(C)c2nc(OC[C@@]34CCCN3C[C@H](F)C4)nc3cc(-c4ccc(F)c5sc(N)c(C#N)c45)c(C(F)(F)F)nc23)C1 [Compound 8] | C (10%≤percent of modification <50%) | C (10%≤percent of modification <50%) | ≤ 500 nM | C (10%≤percent of modification <50%) | ≤ 100 nM

Continued, values first:

Row | GppNHp-KRAS G12C percent of modification [1] | GDP-KRAS G12C percent of modification [2] | IC50 [3] | GTP-KRAS G12C percent of modification [4] | IC50 (pERK in NCI-H358 cells) | Structure (SMILES)
4 | A (percent of modification ≥70%) | A (percent of modification ≥70%) | ≤ 500 nM | A (percent of modification ≥70%) | ≤ 100 nM | C=CC(=O)N1CCC(N(C)c2nc(OC[C@@]34CCCN3C[C@H](F)C4)nc3c(Cl)c(-c4ccc(F)c5sc(N)c(C#N)c45)ncc23)[C@H]1COC (mixture of isomers) [Compound 29, 4-(4-((rac-(2S,3R)-1-acryloyl-2-(methoxymethyl)pyrrolidin-3-yl)(methyl)amino)-8-chloro-2-(((2R,7aS)-2-fluorotetrahydro-1H-pyrrolizin-7a(5H)-yl)methoxy)pyrido[4,3-d]pyrimidin-7-yl)-2-amino-7-fluorobenzo[b]thiophene-3-carbonitrile]
5 | A (percent of modification ≥70%) | A (percent of modification ≥70%) | ≤ 500 nM | A (percent of modification ≥70%) | ≤ 100 nM | C=CC(=O)N1CC[C@@H](N(C)c2nc(OC[C@@]34CCCN3C[C@H](F)C4)nc3c(F)c(-c4ccc(F)c5sc(N)c(C#N)c45)ncc23)C1 [Compound 6, 2-amino-7-fluoro-4-[8-fluoro-2-[[(2R,8S)-2-fluoro-1,2,3,5,6,7-hexahydropyrrolizin-8-yl]methoxy]-4-[methyl-[(3R)-1-prop-2-enoylpyrrolidin-3-yl]amino]pyrido[4,3-d]pyrimidin-7-yl]benzothiophene-3-carbonitrile]
6 | C (10%≤percent of modification <50%) | A (percent of modification ≥70%) | ≤ 500 nM | C (10%≤percent of modification <50%) | > 1000 nM | C=CC(=O)N1CC[C@@H](N(C)c2nc(OC[C@@]34CCCN3C[C@H](F)C4)nc3nc(-c4ccc(F)c5sc(N)c(C#N)c45)ccc23)C1 [Compound 9, 4-(4-(((R)-1-acryloylpyrrolidin-3-yl)(methyl)amino)-2-(((2R,7aS)-2-fluorotetrahydro-1H-pyrrolizin-7a(5H)-yl)methoxy)pyrido[2,3-d]pyrimidin-7-yl)-2-amino-7-fluorobenzo[b]thiophene-3-carbonitrile]
7 | A (percent of modification ≥70%) | A (percent of modification ≥70%) | ≤ 500 nM | C (10%≤percent of modification <50%) | ≤ 100 nM | C=CC(=O)N1C[C@H](C)N(c2nc(OC[C@@]34CCCN3C[C@H](F)C4)nc3cc(-c4ccc(F)c5sc(N)c(C#N)c45)c(C(F)(F)F)nc23)C[C@H]1C [Compound 10, 4-(4-((2S,5R)-4-acryloyl-2,5-dimethylpiperazin-1-yl)-2-(((2R,7aS)-2-fluorotetrahydro-1H-pyrrolizin-7a(5H)-yl)methoxy)-6-(trifluoromethyl)pyrido[3,2-d]pyrimidin-7-yl)-2-amino-7-fluorobenzo[b]thiophene-3-carbonitrile]
